Read-outs that look alike come from different tables or passages of the source.
Assays:
[1] = molecular target: T1, HCV NS5B RdRp genotype 1b (Hepatitis C virus genotype 1b, UniProt Q9WMX2); test: Modified HCV NS5B RdRp enzyme assay (preincubation protocol); assay type: biochemical
T1 construct: The protein was expressed with an 18 amino acid C-terminal truncation to enhance the solubility; made in house; host or cells: E. coli BL21(DE3)
Protocol: HCV NS5B RdRp cloning, expression, and purification. The cDNA encoding the NS5B protein of HCV, genotype 1b, was cloned into the pET21a expression vector. The protein was expressed with an 18 amino acid C-terminal truncation to enhance the solubility. The E. coli competent cell line BL21(DE3) was used for expression of the protein. Cultures were grown at 37° C. for ˜4 hours until the cultures reached an optical density of 2.0 at 600 nm. The cultures were cooled to 20° C. and induced with 1 mM IPTG. Fresh ampicillin was added to a final concentration of 50 μg/ml and the cells were grown overnight at 20° C.
Cell pellets (3 L) were lysed for purification to yield 15-24 mgs of purified NS5B. The lysis buffer consisted of 20 mM Tris-HCl, pH 7.4, 500 mM NaCl, 0.5% triton X-100, 1 mM DTT, 1 mM EDTA, 20% glycerol, 0.5 mg/ml lysozyme, 10 mM MgCl2, 15 ug/ml deoxyribonuclease I, and Complete TM protease inhibitor tablets (Roche). After addition of the lysis buffer, frozen cell pellets were resuspended using a tissue homogenizer. To reduce the viscosity of the sample, aliquots of the lysate were sonicated on ice using a microtip attached to a Branson sonicator. The sonicated lysate was centrifuged at 100,000×g for 1 hr at 4° C. and filtered through a 0.2 μm filter unit (Corning).
The protein was purified using three sequential chromatography steps: Heparin sepharose CL-6B, polyU sepharose 4B, and Hitrap SP sepharose (Pharmacia). The chromatography buffers were identical to the lysis buffer but contained no lysozyme, deoxyribonuclease I, MgCl2 or protease inhibitor and the NaCl concentration of the buffer was adjusted according to the requirements for charging the protein onto the column. Each column was eluted with a NaCl gradient which varied in length from 5-50 column volumes depending on the column type. After the final chromatography step, the resulting purity of the enzyme is >90% based on SDS-PAGE analysis. The enzyme was aliquoted and stored at −80° C.
Standard HCV NS5B RdRp enzyme assay. HCV RdRp genotype 1b assays were run in a final volume of 60 μl in 96 well plates (Costar 3912). The assay buffer is composed of 20 mM Hepes, pH 7.5, 2.5 mM KCl, 2.5 mM MgCl2, 1 mM DTT, 1.6 U RNAse inhibitor (Promega N2515), 0.1 mg/ml BSA (Promega R3961), and 2% glycerol. All compounds were serially diluted (3-fold) in DMSO and diluted further in water such that the final concentration of DMSO in the assay was 2%. HCV RdRp genotype 1b enzyme was used at a final concentration of 28 nM. A polyA template was used at 6 nM, and a biotinylated oligo-dT12 primer was used at 180 nM final concentration. Template was obtained commercially (Amersham 27-4110). Biotinylated primer was prepared by Sigma Genosys. 3H-UTP was used at 0.6 μCi (0.29 μM total UTP). Reactions were initiated by the addition of enzyme, incubated at 30° C. for 60 min, and stopped by adding 25 μl of 50 mM EDTA containing SPA beads (4 μg/μl, Amersham RPNQ 0007). Plates were read on a Packard Top Count NXT after >1 hr incubation at room temperature.
Modified HCV NS5B RdRp enzyme assay. A modified enzyme assay was performed essentially as described for the standard enzyme assay except for the following: The biotinylated oligo dT12 primer was precaptured on streptavidin-coated SPA beads by mixing primer and beads in assay buffer and incubating at room temperature for one hour. Unbound primer was removed after centrifugation. The primer-bound beads were resuspended in 20 mM Hepes buffer, pH 7.5 and used in the assay at final concentrations of 20 nM primer and 0.67 μg/μl beads. Order of addition in the assay: enzyme (14 nM) was added to diluted compound followed by the addition of a mixture of template (0.2 nM), 3H-UTP (0.6 μCi, 0.29 μM), and primer-bound beads, to initiate the reaction; concentrations given are final. Reactions were allowed to proceed for 4 hours at 30° C.
IC50 values for compounds were determined using seven different [I]. […]

HCV replicon cells = test: HCV replicon FRET assay; assay type: cell-based; details: Hepatitis C virus
Description: FRET Assay Preparation. To perform the HCV FRET screening assay, 96-well cell culture plates were used. The FRET peptide (Anaspec, Inc.) (Taliani et al., Anal. Biochem. 1996, 240, 60-67) contains a fluorescence donor, EDANS, near one end of the peptide and an acceptor, DABCYL, near the other end. The fluorescence of the peptide is quenched by […] resonance energy transfer (RET) between the donor and the acceptor, but as the NS3 protease cleaves the peptide the products are released from RET quenching and the fluorescence of the donor becomes apparent. The assay reagent was made as follows: 5× cell Luciferase cell culture lysis reagent from Promega (#E153A) diluted to 1× with dH2O, NaCl added to 150 mM final, the FRET peptide diluted to 20 uM final from a 2 mM stock.
To prepare plates, HCV replicon cells, with or without a Renilla luciferase reporter gene, were trypsinized and placed into each well of a 96-well plate with titrated test compounds added in columns 3 through 12; columns 1 and 2 contained a control compound (HCV protease inhibitor), and the bottom row contained cells without compound. The plates were then placed in a CO2 incubator at 37° C.
Assays. Subsequent to addition of the test compounds described above (FRET Assay Preparation), at various times the plate was removed and Alamar blue solution (Trek Diagnostics, #00-100) was added per well as a measure of cellular toxicity. After reading in a Cytoflour 4000 instrument (PE Biosystems), plates were rinsed with PBS and then used for FRET assay by the addition of 30 ul of the FRET peptide assay reagent described above (FRET Assay Preparation) per well. The plate was then placed into the Cytoflour 4000 instrument which had been set to 340 excite/490 emission, automatic mode for 20 cycles and the plate read in a kinetic mode. Typically, the signal to noise using an endpoint analysis after the reads was at least three-fold. Alternatively, after Alamar blue reading, plates were rinsed with PBS, 50 ul of DMEM (high glucose) without phenol red was added and plates were then used for luciferase assay using the Promega Dual-Glo Luciferase Assay System.
Compound analysis was determined by quantification of the relative HCV replicon inhibition and the relative cytotoxicity values. To calculate cytoxicity values, the average Alamar Blue fluorescence signals from the control wells were set as 100% non-toxic. The individual signals in each of the compound test wells were then divided by the average control signal and multiplied by 100% to determine […]. To calculate the HCV replicon inhibition values, an average background value was obtained from the two wells containing the highest amount of HCV protease inhibitor at the end of the assay period. These numbers were similar to those obtained from naïve Huh-7 cells.
The background numbers were then subtracted from the average signal obtained from the control wells and this number was used as 100% activity. The individual signals in each of the compound test wells were then divided by the averaged control values after background subtraction and multiplied by 100% to determine percent activity. EC50 values for a protease inhibitor titration were calculated as the concentration which caused a 50% reduction in FRET or luciferase activity. The two numbers generated for the compound plate, percent cytoxicity and percent activity were used to determine compounds of interest for further analysis.

[2] = HCV NS5B RdRp genotype 1b, preincubation protocol, read-out: IC50
[3] = HCV replicon cells, FRET assay, read-out: EC50

T1 sequence (Q9WMX2 2420-2992): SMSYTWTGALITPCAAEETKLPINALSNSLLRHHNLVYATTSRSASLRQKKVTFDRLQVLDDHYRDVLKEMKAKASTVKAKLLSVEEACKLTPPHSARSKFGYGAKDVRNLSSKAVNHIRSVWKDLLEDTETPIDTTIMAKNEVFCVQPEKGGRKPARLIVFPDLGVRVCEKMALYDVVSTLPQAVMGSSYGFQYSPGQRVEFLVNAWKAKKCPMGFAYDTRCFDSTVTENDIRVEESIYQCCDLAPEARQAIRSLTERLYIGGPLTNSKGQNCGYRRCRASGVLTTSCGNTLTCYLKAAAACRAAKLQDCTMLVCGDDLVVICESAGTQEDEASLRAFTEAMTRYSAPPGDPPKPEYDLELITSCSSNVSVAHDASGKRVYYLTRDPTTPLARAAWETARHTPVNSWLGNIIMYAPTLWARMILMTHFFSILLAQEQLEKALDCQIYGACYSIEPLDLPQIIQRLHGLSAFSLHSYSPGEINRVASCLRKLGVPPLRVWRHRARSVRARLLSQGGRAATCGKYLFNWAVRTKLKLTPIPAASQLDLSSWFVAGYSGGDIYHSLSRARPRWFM

SMILES	IC50 [1, 2] [nM]	EC50 (HCV replicon cells; [3]) [nM]	IC50 [1] [nM]	EC50 (HCV replicon cells) [nM]
CCN1CC2CC1CN2S(=O)(=O)C12CC1c1cc(OC)ccc1-c1c(C3CCCCC3)c3ccc(C(=O)NS(=O)(=O)N4CCOCC4)cc3n1C2 (stereo not shown)	20 to 1000	20 to 1000		
COc1ccc2c(c1)CC(S(=O)(=O)CCN1CCOCC1)Cn1c-2c(C2CCCCC2)c2ccc(C(=O)NS(=O)(=O)N(C)C)cc21 (stereo not shown)	20 to 1000	20 to 1000		
COc1ccc2c(c1)C1CC1(S(=O)(=O)N1CCN3CCC1CC3)Cn1c-2c(C2CCCCC2)c2ccc(C(=O)NS(=O)(=O)N3CCOCC3)cc21 (stereo not shown)	20 to 1000	20 to 1000		
COc1ccc2c(c1)C1CC1(S(=O)(=O)N(C)C)Cn1c-2c(C2CCCCC2)c2ccc(C(=O)NS(=O)(=O)N(C)C)cc21 (stereo not shown)	20 to 1000	20 to 1000		
COc1ccc2c(c1)C1CC1(S(=O)(=O)N1C[C@@H](C)O[C@@H](C)C1)Cn1c-2c(C2CCCCC2)c2ccc(C(=O)O)cc21 (stereo partly shown)	20 to 1000	20 to 1000		
COc1ccc2c(c1)CC(S(=O)(=O)N1CCOCC1)Cn1c-2c(C2CCCCC2)c2ccc(C(=O)O)cc21 (stereo not shown)	20 to 1000	20 to 1000		
COc1ccc2c(c1)C1CC1(S(=O)(=O)N1CCN(S(C)(=O)=O)CC1)Cn1c-2c(C2CCCCC2)c2ccc(C(=O)NS(=O)(=O)N(C)C)cc21 (stereo not shown)	20 to 1000	20 to 1000		
COc1ccc2c(c1)C1CC1(S(=O)(=O)N1C[C@@H](C)N(C)[C@@H](C)C1)Cn1c-2c(C2CCCCC2)c2ccc(C(=O)O)cc21 (stereo partly shown)	20 to 1000	20 to 1000		
COc1ccc2c(c1)C1CC1(S(=O)(=O)N1CCOCC1)Cn1c-2c(C2CCCCC2)c2ccc(C(=O)NS(=O)(=O)N(C)C)cc21 (stereo not shown)	20 to 1000	20 to 1000		
COc1ccc2c(c1)C1CC1(S(=O)(=O)N1C3CCC1CN(C)C3)Cn1c-2c(C2CCCCC2)c2ccc(C(=O)NS(=O)(=O)N(C)C)cc21 (stereo not shown)			20 to 1000	20 to 1000
CN(C)S(=O)(=O)NC(=O)c1ccc2c(C3CCCCC3)c3n(c2c1)CC(S(=O)(=O)N1CCOCC1)=Cc1ccccc1-3	20 to 1000	20 to 1000		
COc1ccc2c(c1)C1CC1(S(=O)(=O)N1CCC[C@H]3CN(Cc4ccccc4)C[C@H]31)Cn1c-2c(C2CCCCC2)c2ccc(C(=O)NS(=O)(=O)N3CCOCC3)cc21 (stereo partly shown)	20 to 1000	20 to 1000		
COc1ccc2c(c1)C1CC1(S(=O)(=O)N1C3CCC1CC(C)(O)C3)Cn1c-2c(C2CCCCC2)c2ccc(C(=O)NS(=O)(=O)C(C)C)cc21 (stereo not shown)			20 to 1000	20 to 1000
COc1ccc2c(c1)C1CC1(S(=O)(=O)N1CC3C[C@H]1CN3C)Cn1c-2c(C2CCCCC2)c2ccc(C(=O)O)cc21 (stereo partly shown)	20 to 1000	20 to 1000		
